Experimental data reported in patent US8946199B2, “Co-administration of steroids and Zoledronic acid to prevent and treat side effects from Zoledronic acid infusion” (priority 2010, dated 2015).

Tests used:
[1] = administration of Zometa; syndrome of fever, nausea, bone pain, arthralgia, myalgia, chills; cited from earlier work
[2] = patients with osteoporosis; Zoledronic Acid alone, 3 patients
Protocol: In theory, co-administration of a steroid for a short duration could decrease inflammation and therefore the incidence of ONJ. […] A study comparing the incidence of PDS with Zoledronic acid with a Zoledronic Acid and steroid combination is, however, feasible and such a study has been undertaken.
Eight patients with osteoporosis were treated with Zoledronic Acid alone (3 patients) or with the combination of steroids (oral prednisone, 3, and intravenous prednisolone, 2) with Zoledronic Acid.

[3] = in vivo; cited from earlier work

Structure (SMILES): O=P(O)(O)C(O)(Cn1ccnc1)P(=O)(O)O [Zoledronic Acid]
- patients affected by post-dosing syndrome (PDS) [1]: ≤ 44%
- patients who suffered from PDS [2]: All three
- t1/2α [3]: 14.4 min
